Tested on: HIV RNA splicing in infected PBMCs
Test: Sequence capture and 454 pyrosequencing of HIV RNA in infected PBMCs
Assay type: cell-based, HIV-1
Experimental: To test whether Compound 1 influences the splicing of HIV RNA in infected cells, an array-based sequence capture was performed using a customized library probes targeting HIV sequences to get rid of cellular RNA. The probes were used to capture cDNAs prepared from infected treated and untreated PBMCs. After double capture, libraries were prepared and sequenced using 454 pyrosequencing (according to GS junior method manual). The average size of the reads around 400 bp allowed unambiguous assembly of viral genome from untreated sample (after 3 and 6 days of infection) using reads that were not mapped to human genome (hg19). All sequencing data were analysed using gsnap, as detailed in Wu et al. (Fast and SNP-tolerant detection of complex variants and splicing in short reads. Bioinformatics 26, 873-881 (2010)).

## FC(F)(F)Oc1ccc(Nc2ccc3cccc(Cl)c3n2)cc1 [Compound 1, 8-chloro-N-(4-(trifluoromethoxy)phenyl)quinolin-2-amine]
3 days post infection
  coverage of viral genome: 4149 reads
3 days post-infection
  fraction of reads corresponding to splice junctions: 17.4%
6 days post-infection
  fraction of reads corresponding to splice junctions: 13.3%
  number of reads: 20 585

Source: US10718770B2, “Methods for screening compounds for treating or preventing a viral infection or a virus-related condition” (ABIVAX, priority 2015, dated 2020)
